Test results reported in ChEMBL document CHEMBL2073807, “Effects of glibenclamide on glycylsarcosine transport by the rat peptide transporters PEPT1 and PEPT2” (Br J Pharmacol, 1999).

How the values were obtained:
[1] = target: T1, Solute carrier family 15 member 1 (Rattus norvegicus, UniProt P51574); assay: TP_TRANSPORTER: inhibition of Gly-Sar uptake in PEPT1-expressing LLC-PK1 cells; assay type: functional, cell-based
T1 sequence (P51574 whole entry): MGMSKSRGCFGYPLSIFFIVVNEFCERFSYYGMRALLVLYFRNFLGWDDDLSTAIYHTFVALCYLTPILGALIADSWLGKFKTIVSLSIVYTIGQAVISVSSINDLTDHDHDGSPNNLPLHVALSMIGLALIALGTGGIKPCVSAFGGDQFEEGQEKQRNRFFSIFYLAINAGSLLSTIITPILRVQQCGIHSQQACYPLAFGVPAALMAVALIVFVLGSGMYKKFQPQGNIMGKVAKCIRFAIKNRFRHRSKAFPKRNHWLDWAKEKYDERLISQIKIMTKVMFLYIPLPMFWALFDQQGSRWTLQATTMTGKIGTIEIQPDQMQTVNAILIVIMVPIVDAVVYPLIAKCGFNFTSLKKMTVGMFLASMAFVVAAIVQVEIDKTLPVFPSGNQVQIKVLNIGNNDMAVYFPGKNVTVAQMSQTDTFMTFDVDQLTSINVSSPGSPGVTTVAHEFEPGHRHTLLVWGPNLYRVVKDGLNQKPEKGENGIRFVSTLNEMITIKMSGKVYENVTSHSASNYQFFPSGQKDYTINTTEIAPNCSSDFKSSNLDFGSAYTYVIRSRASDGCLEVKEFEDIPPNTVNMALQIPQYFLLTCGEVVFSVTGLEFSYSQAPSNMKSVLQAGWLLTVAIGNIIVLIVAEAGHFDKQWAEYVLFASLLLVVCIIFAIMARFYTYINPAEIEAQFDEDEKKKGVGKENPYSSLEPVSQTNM

[2] = target: T2, Solute carrier family 15 member 2 (Rattus norvegicus, UniProt Q63424); assay: TP_TRANSPORTER: inhibition of Gly-Sar uptake in PEPT2-expressing LLC-PK1 cells; assay type: functional, cell-based
T2 sequence (Q63424 whole entry): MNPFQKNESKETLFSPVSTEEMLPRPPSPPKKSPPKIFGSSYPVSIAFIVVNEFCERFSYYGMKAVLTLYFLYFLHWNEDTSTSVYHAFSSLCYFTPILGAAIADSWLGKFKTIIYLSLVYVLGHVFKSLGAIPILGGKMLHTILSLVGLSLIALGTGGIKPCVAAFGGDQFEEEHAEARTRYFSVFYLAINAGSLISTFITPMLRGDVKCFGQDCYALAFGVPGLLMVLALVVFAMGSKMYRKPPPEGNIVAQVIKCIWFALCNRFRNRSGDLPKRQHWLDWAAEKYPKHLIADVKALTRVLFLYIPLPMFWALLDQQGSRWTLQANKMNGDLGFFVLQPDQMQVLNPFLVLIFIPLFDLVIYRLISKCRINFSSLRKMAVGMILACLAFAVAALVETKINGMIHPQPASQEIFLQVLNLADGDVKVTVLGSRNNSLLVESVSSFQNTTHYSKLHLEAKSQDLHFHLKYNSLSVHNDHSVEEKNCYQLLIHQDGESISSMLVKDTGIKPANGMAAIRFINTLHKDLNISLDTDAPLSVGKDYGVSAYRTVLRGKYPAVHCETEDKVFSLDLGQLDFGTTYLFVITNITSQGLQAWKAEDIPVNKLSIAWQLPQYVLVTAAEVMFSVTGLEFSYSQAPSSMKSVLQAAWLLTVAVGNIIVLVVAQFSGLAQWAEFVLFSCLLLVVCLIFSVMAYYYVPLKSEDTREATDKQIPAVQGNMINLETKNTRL

Ki [1]: 25 µM | Ki [2]: 7.8 µM
Structure (SMILES): COc1ccc(Cl)cc1C(=O)NCCc1ccc(S(=O)(=O)NC(=O)NC2CCCCC2)cc1 [GLYBURIDE]
